Key:
GPR81 [1] = biological target: T1, GPR81 (Homo sapiens, UniProt Q9BXC0); experiment: GPR81 [35S]GTPγS binding assay; type: biochemical; conditions: membranes of CHO-K1 cells stably transfected with GPR81
T1 construct: expressed in transfected cells; host or cells: CHO-K1 (ATCC CCL-61), recombinant, stably transfected
Protocol: Compounds were screened for agonism of GPR81 (e.g. human GPR81) using a GTPγS binding assay and CHO-K1 cells stably transfected with GPR81.
GPR81 stably transfected CHO-K1 cells were grown in F-12 Kaighn's Modified Cell Culture Medium with 10% FBS, 2 mM L-glutamine, 1 mM sodium pyruvate and 400 μg/ml G418. For 15 cm^2 plates, cells were rinsed with 5 mL cold PBS and aspirated. Cold membrane scrape buffer (20 mM HEPES, 10 mM EDTA, pH 7.4) was added and cells were scraped off the plate and transferred to a 50 mL centrifuge tube. Cells were spun at 20,000 rpm for 17 minutes at 4° C. The supernatant was aspirated and the pellet was re-suspended in cold membrane wash buffer (30 mL, 20 mM HEPES, 0.1 mM EDTA, pH 7.4). Cells were spun at 20,000 rpm for 17 minutes at 4° C. The supernatant was aspirated away from the membrane pellet. The pellet may be frozen at −80° C. for later use or may be used immediately.
The membrane pellet was thawed (if frozen) on ice and homogenized briefly until in suspension using a polytron mixer (POLYTRON PT3100, probe PT-DA 3007/2 at setting of 7000 rpm). The membrane protein concentration was determined using a Bradford assay. The membrane protein was diluted to a protein concentration of 0.20 mg/mL in binding buffer (20 mM HEPES, pH 7.4, 100 mM NaCl, 10 mM MgCl2) for a final assay concentration of 5 μg/well. Compound plates to be screened were thawed (daughter plates with 5 μL compound@2 mM in 100% DMSO). The 2 mM compounds were diluted 1:50 with 245 μL GDP buffer (binding buffer plus GDP, Sigma-Aldrich Catalog #87127, ranging from 0.4 to 40 μM, made fresh before assay) to 40 μM in 2% DMSO. Compounds in GDP buffer (25 were added per well of a Scintistrip plate (Wallac Catalog #1450-501) and then 50 μL of membrane preparation (0.4 mg protein/mL) was added to each well. The plates were then covered with foil and incubated for 5-10 minutes at room temperature. Subsequently, 25 μL of diluted [^35S]GTPγS (Amersham Biosciences Catalog #SJ1320, about 2000 Ci/mmol (made by adding 5 μL [^35S]GTPγS stock into 10 ml binding buffer) was added to the wells. The plates were covered with foil and incubated on a shaker (Lab-Line model #1314, at setting of 4) for 60 minutes at room temperature. The assay was stopped by sealing the plates with plate covers and spinning the plates at 4000 rpm for 15 minutes at 22° C. The supernatant of each well was apirated using an eight-channel manifold and the plate was read in a Wallac Microbeta counter 1450 set up to detect ^35S.

GPR81 [2] = biological target: T1, GPR81; experiment: HTRF assay for direct cAMP measurement; type: cell-based; conditions: CHO-K1 cells stably transfected with GPR81, forskolin-stimulated cAMP
Text: Compounds were screened for agonists of GPR81 (e.g., human GPR81) using an HTRF® assay for direct cAMP measurement (Gabriel et al, ASSAY and Drug Development Technologies, 1:291-303, 2003) and recombinant CHO-K1 cells stably transfected with GPR81. CHO-K1 cells were obtained from ATCC® (Manassas, Va.; Catalog #CCL-61). An agonist of GPR81 was detected in the HTRF® assay for direct cAMP measurement as a compound which decreased cAMP concentration. The HTRF® assay also was used to determine EC50 values for GPR81 agonists.
The HTRF® assay kit was purchased from Cisbio-US, Inc. (Bedford, Mass.; Catalog #62AM4PEC). The HTRF® assay supported by the kit is a competitive immunoassay between endogenous cAMP produced by the CHO-K1 cells and tracer cAMP labeled with the dye d2. The tracer binding is visualized by a monoclonal anti-cAMP antibody labeled with Cryptate. The specific signal (i.e., fluorescence resonance energy transfer, FRET) is inversely proportional to the concentration of unlabeled cAMP in the standard or sample.
The fluorescence ratio of the samples (test compound or compound buffer) was calculated and used to deduce respective cAMP concentrations by reference to the cAMP standard curve.
The HTRF® assay was carried out using a two-step protocol essentially according to the kit manufacturer's instructions, in 20 μL total volume per well in 384-well plate format (ProxiPlates; PerkinElmer, Fremont, Calif.; catalog #6008280). To each of the experimental wells was transferred 1000 recombinant CHO-K1 cells in 5 μL phosphate buffered saline containing calcium chloride and magnesium chloride (“PBS+”; Invitrogen, Carlsbad, Calif.; catalog #14040) supplemented with IBMX (100 μM) (phosphodiesterase inhibitors; Sigma-Aldrich, St. Louis, Mo.; catalog #I-5879), followed by test compound in 5 μL compound buffer (PBS+ supplemented with 10 μM forskolin (Sigma-Aldrich, St. Louis, Mo.; catalog #F-6886)). The plate was then incubated at room temperature for 1 hour. To each well was then added 5 μl cAMP-d2 conjugate in lysis buffer and 5 μL Cryptate conjugate in lysis buffer according to the kit manufacturer's instructions. The plate was then further incubated at room temperature for 1 hour, after which the assay plate was read.
HTRF® readout was accomplished using a PHERAstar (BMG LABTECH Inc., Durham, N.C.) or EnVision™ (PerkinElmer, Fremont Calif.) microplate reader.

[3] = tested on: rat epididymal adipocytes; experiment: Glycerol assay (rat adipocyte lipolysis); type: cell-based; conditions: rat epididymal adipocytes in vitro, FIG. 5
Protocol: Free glycerol was determined using a free glycerol reagent, Reagent A (Sigma). Adipocyte media (10 μL) was removed and replated in a flat-bottom 96-well plate. Reagent A (100 μL) was then added to each well. After 10-15 minutes, abroad sorbance was read at OD540 on a Spectramax 340PC microplate reader (Molecular Devices). The amount of glycerol released was calculated based on regression analysis of known glycerol concentrations using a glycerol standard (Sigma).
Epididymal fat pads were surgically removed from CO2-anesthetized male Sprague Dawley rats, weighing 300-500 g. The adipose tissue was minced and suspended in Krebroad s-Ringer bicarbonate HEPES buffer (containing […], […] (monobasic), […] MgSO4.7H2O, […] CaCl2, 1 mM NaHCO3, 3 mM HEPES, 200 nM adenosine, and 1% BSA) with 2.5 mg of collagenase (Sigma) per gram of tissue. The suspension was incubated in an orbital shaker at 37° C. for 40 minutes with constant agitation. Cells were then filtered through a 500 μm mesh filter. For each filter used, 10 mL of buffer was added to the cell suspension to aid with the filtration. Cells were spun at 1000 rpm for 1 minute. A glass Pasteur pipette was then used to remove all buffer remaining below the floating adipocyte layer. Approximately 30 mL of new buffer was then added to the adipocytes and they were incubated for 5 minutes at 37° C. […]

Male Sprague Dawley rats = experiment: NEFA assay, circulating free fatty acids in rats; type: in vivo, rat; conditions: after injection of 100 mpk, FIG. 6
Protocol: (§1) The supplied standard was diluted with DI water to 1, 0.5, 0.25, 0.125, 0.0625, 0.03125. A water blank was also prepared. Serum samples and standards were dispensed (5 μl/well) to wells of a 96-well plate. Reagent A (100 μL) was added to each well and incubated for 10 minutes at 37° C. Reagent B (200 μL) was then added to each well and incubated for another 10 minutes at 37° C. After equilibration for 5 minutes at room temperature (about 25° C.), the abroad sorbance was measured on a plate reader at 550 nm.
Male Sprague Dawley rats (10-12 weeks old) were obtained from Charles River Labroad s pre-cannulated with right jugular catheters for sample collection. Rats were food deprived overnight (by removing food pellets from the cage) for approximately 16 hours with ad libitum access to water. Canulae were flushed with saline to remove heparin and to clear the catheter line 30 minutes prior to the first (basal) sample collection. Basal samples were collected in a staggered dose manner (e.g. vehicle, high dose, low dose, low dose, high dose, and vehicle). Rats were injected per oral (PO), 2 mL/kg with 5% HPBCD (Hydroxypropyl-β-cyclodextrin) or with drug in 5% HPBCD. Blood (500-700 μl) was drawn via catheter at 10, 20, 40, 60, 120, and 240 minutes post dosing, and saline (about 200 μl) was infused into the catheter to ensure patency. […]

Male C57/B16 mice = experiment: NEFA assay, circulating free fatty acids in mice; type: in vivo, mouse; conditions: FIG. 7
Protocol: as §1
Male C57/B16 mice (8-10 weeks old; about 23 g) were food deprived (by removing food pellets from the cage) for 5 hours with ad libitum access to water. Animals were then dosed with vehicle (5% HPBCD) or drug via intraperitoneal (IP) injection at the desired concentration in a volume of 10 mL/kg. After 30 minutes, mice were euthanized via CO2 asphyxiation and about 300 μl of blood were immediately collected by cardiac puncture. The blood was transferred to an Eppendorf tube and capped on ice. The blood was then centrifuged on a table top centrifuge (4000 rpm at 4° C. for 10 minutes). Serum was collected in a new microfuge tube and re-centrifuged (4000 rpm at 4° C. for 10 minutes). Serum samples were dispensed (5 μl/well) to wells of a 96-well plate.

T1 sequence (Q9BXC0 whole entry): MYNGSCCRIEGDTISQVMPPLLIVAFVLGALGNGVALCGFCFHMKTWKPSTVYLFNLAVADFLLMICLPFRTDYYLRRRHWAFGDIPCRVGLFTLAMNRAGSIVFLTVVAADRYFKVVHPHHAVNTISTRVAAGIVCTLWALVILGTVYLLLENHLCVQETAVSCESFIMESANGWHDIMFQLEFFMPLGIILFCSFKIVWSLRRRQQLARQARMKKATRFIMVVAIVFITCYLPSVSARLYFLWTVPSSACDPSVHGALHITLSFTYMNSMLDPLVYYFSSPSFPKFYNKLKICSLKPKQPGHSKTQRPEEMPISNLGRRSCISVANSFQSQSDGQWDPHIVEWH

| EC50 (GPR81 [1]) [nM] | EC50 (GPR81 [2]) [nM] | SMILES | also measured |
| --- | --- | --- | --- |
| 1390 | – | Oc1ccc2ncn(-c3ccc(Cl)cc3C(F)(F)F)c2n1 [Compound 56, 3-(4-Chloro-2-(trifluoromethyl)phenyl)-3H-imidazo[4,5-b]pyridin-5-ol] | – |
| – | 2330 | Cc1c(F)cccc1-n1c(N)nc2ccc(O)nc21 [Compound 64, 2-Amino-3-(3-Fluoro-2-methylphenyl)-3H-imidazo[4,5-b]pyridin-5-ol] | – |
| – | 350 | Oc1ccc2ncn(C3CCCCCC3)c2n1 [Compound 48, 3-Cycloheptyl-3H-imidazo[4,5-b]pyridin-5-ol] | – |
| 30.3 | – | Oc1ccc2ncn(C34CC5CC(CC(C5)C3)C4)c2n1 [Compound 114, 3-(Adamant-1-yl)-3H-imidazo[4,5-b]pyridin-5-ol] | – |
| 81.5 | – | Oc1ccc2nc(Cl)n(-c3ccccc3C3CC3)c2n1 [Compound 133, 2-Chloro-3-(2-Cyclopropylphenyl)-3H-imidazo[4,5-b]pyridin-5-ol] | – |
| – | – | Oc1ccc2ncn(-c3ccccc3Cl)c2n1 [Compound 25, 3-(2-Chlorophenyl)-3H-imidazo[4,5-b]pyridin-5-ol] | inhibition of lipolysis [3]: inhibition of lipolysis; circulating free fatty acids (Male Sprague Dawley rats): significant decrease of circulating free fatty acids; circulating free fatty acids (Male C57/B16 mice): significant decrease of circulating free fatty acids |
| 75.3 | – | Oc1ccc2nc(Cl)n(C3CCCCC3)c2n1 [Compound 127, 2-Chloro-3-cyclohexyl-3H-imidazo[4,5-b]pyridin-5-ol] | – |
| – | – | Oc1ccc2ncn(-c3ccccc3C(F)(F)F)c2n1 [Compound 28, 3-(2-(Trifluoromethyl)phenyl)-3H-imidazo[4,5-b]pyridin-5-ol] | circulating free fatty acids (Male C57/B16 mice): significant decrease of circulating free fatty acids |
| – | 1050 | Nc1nc2ccc(O)nc2n1-c1ccccc1 [Compound 9, 2-Amino-3-phenyl-3H-imidazo[4,5-b]pyridin-5-ol] | – |
| – | 2760 | Oc1ccc2ncn(-c3cccc(Cl)c3F)c2n1 [Compound 50, 3-(3-Chloro-2-fluorophenyl)-3H-imidazo[4,5-b]pyridin-5-ol] | – |

Source: patent US8507473B2, “3H-imidazo[4,5-b]pyridin-5-ol derivatives useful in the treatment of GPR81 receptor disorders” (Arena Pharmaceuticals, Inc., priority 2008, dated 2013)
